# Tests used:
# [1] = test system: aconitine-induced ECG alterations; test: animal or person; type: in vivo, rat; conditions: Rattus norvegicus; for change in vivo at 4 mg/kg / ED50: iv; for change in vivo at 4 mg/kg / change in vivo at 100 mg/kg: read-out: Effect % (antiarrhythmic); for ED50: read-out: ED50 iv. (antiarrhythmic); for change in vivo at 100 mg/kg: po
# Protocol: The test was carried out by using the modified method of Marmo et al. on rats weighing 160 to 200 g. The animals were narcotised by ethyl uretane (1.2 g/kg ip.). Aconitin was administered intravenously in a dose of 75 /ug/kg in the form of a bolus injection. The ECG alterations were monitored in standard II lead by 5 minutes after the administration of aconitine. The observed alterations were classified into classes 0 to 5. The compounds of the invention were administered 2 minutes or 60 minutes before the parenteral or oral administration of aconitine, respectively. […]
# class 1: sometimes an extrasystole occurs class 2: each second one is an extrasystole class 3: extrasystoles in groups class 4: each one is an extrasystole class 5: fibrillation, death
# (Marmo, E., DiGiacomo, S., Imperatore, A.: Arzeimittel-Forschung 20, 12/1970/)
# [2] = acute toxicity test in mice (Litchfield and Wilcoxon); type: in vivo, mouse; conditions: mouse, in vivo, po., 14 days observation
# Protocol: The test for acute toxicity was carried out by using 10 white mice (CFLP strain) (both male and female), weighing 18 to 22 g in each dose group. The compounds of the invention were administered orally in a dose of 20 ml/kg.
# The animals were kept in a plastic box on wood chips in a room of room temperature. They could consume tap water and standard mouse feed ad libitum. The toxicity data were determined by the method of Litchfield and Wilcoxon (Litchfield, J. T., Wilcoxon, F. W.: J. Pharmacol. Exp. Ther. 96, 99/1949/).
# hexobarbital narcosis = test: narcosis potentiating effect (hexobarbital sleeping time); conditions: for ED50: Mus musculus, po, read-out: ED50 (narcosis potentiation); for TI (therapeutic index): narcosis potentiation, mice, po.
# Protocol: The narcosis potentiating effect of the compounds of the invention were examined on white mice, with 6 animals in each group. The mice were administered orally with the compounds of the invention, then both the control and the test groups were intravenously added 40 mg/kg of hexobarbital in order to make the mice sleep (Kaergard et al.).
Structure (SMILES),change in vivo at 4 mg/kg [1] [%],LD50 at 336 h [2] [mg/kg],ED50 (hexobarbital narcosis) [mg/kg],TI (therapeutic index) (hexobarbital narcosis),ED50 [1] [mg/kg],change in vivo at 100 mg/kg [1] [%]
"CC(C)(C)NCC(O)CO/N=C1\CCCC\C1=C/c1ccccc1 (racemic) [Example 2, R,S-2-(E)-Phenylmethylene-1-(E)-[3-(1,1-dimethylethyl-amino)-2-hydroxy-propoxyimino]-cyclohexane]",-43,600,,,,
"CCCCCCNCC(O)CO/N=C1\CCCC\C1=C/c1ccccc1 (racemic) [Example 3, R,S-2-(E)-Phenylmethylene-1-(E)-(3-hexylamino-2-hydroxy-propoxyimino)-cyclohexane]",,> 1000,,,,
COc1ccc(CCNCC(O)CO/N=C2\CCCC\C2=C/c2ccccc2)cc1OC (racemic) [Example 7],,> 1000,70,14,,
"OC(CO/N=C1\CCCC\C1=C/c1ccccc1)CN1CCCC1 (racemic) [Example 8, R,S-2-(E)-Phenylmethylene-1-(E)-(3-pyrrolidinyl-2-hydroxy-propoxyimino)-cyclohexane]",,800,,,,
"OC(CO/N=C1\CCCC\C1=C/c1ccccc1)CN1CCCCC1 (racemic) [Example 9, R,S-2-(E)-Phenylmethylene-1-(E)-(3-piperidinyl-2-hydroxypropoxyimino)-cyclohexane]",,700,30,23,,
"CC(C)N(CC(O)CO/N=C1\CCCCC\C1=C/c1ccccc1)C(C)C (racemic) [Example 14, R,S-2-(E)-Phenylmethylene-1-(E)-{3-[bis-(1-methylethyl)-amino]-2-hydroxy-propoxyimino}-cycloheptane]",-83,900,80,11,1.64,
"C#CC(C)(C)NCC(O)CO/N=C1\CCCCC\C1=C/c1ccccc1 (racemic) [Example 16, R,S-2-(E)-Phenylmethylene-1-(E)-[3-(1,1-dimethylpropin-2-yl)amino-2-hydroxy-propoxyimino]-cycloheptane]",,> 1000,,,,
"CN1CCN(CC(O)CO/N=C2\CCCCC\C2=C/c2ccccc2)CC1 (racemic) [Example 17, R,S-2-(E)-Phenylmethylene-1-(E)-[3-(4-methyl-1-piperazinyl)-2-hydroxy-propoxyimino]-cycloheptane]",,> 1000,,,,
"CC(C)N(CC(O)CO/N=C1\CCCCCC\C1=C/c1ccccc1)C(C)C (racemic) [Example 19, R,S-2-(E)-Phenylmethylene-1-(E)-{3-[bis(1-methylethyl)-amino]-2-hydroxy-propoxyimino}-cyclooctane]",-76,800,26,31,3.29,
"CC(C)(C)NCC(O)CO/N=C1\CCC\C1=C/c1ccccc1 (racemic) [Example 22, R,S-2-(E)-Phenylmethylene-1-(E)-[3-(1,1-dimethylethylamino)-2-hydroxy-propoxyimino]-cyclopentane]",,900,,,,
"CC(C)(C)NCC(O)CO/N=C1\CCCC\C1=C/c1ccccc1Cl (racemic) [Example 23, R,S-(E)-(2-Chlorophenyl-methylene)-1-(E)-[3-(1,1-dimethylethylamino)-2-hydroxy-propoxyimino]-cyclohexane]",-83,130,16,8,0.36,
"OC(CNC1CC1)CO/N=C1\CCCC\C1=C/c1ccc(Cl)cc1 (racemic) [Example 27, R,S-2-(E)-(4-Chlorophenyl-methylene)-1-(E)-(3-cyclopropylamino-2-hydroxy-propoxyimino)-cyclohexane]",,~1000,35,29,,
"CC(C)NCC(O)CO/N=C1\CCCC\C1=C/c1ccc(Cl)cc1 (racemic) [Example 28, R,S-2-(E)-(4-Chlorophenyl-methylene)-1-(E)-[3-(1-methylethylamino)-2-hydroxy-propoxyimino]-cyclohexane]",,1500,75,20,,
"CC(C)(C)NCC(O)CO/N=C1\CCCC\C1=C/c1ccc(Cl)cc1 (racemic) [Example 31, R,S-2-(E)-(4-Chlorophenyl-methylene)-1-(E)-[3-(1,1-dimethylethylamino)-2'-hydroxy-propoxyimino]-cyclohexane]",,~1000,,,,
"CCCN(CCC)CC(O)CO/N=C1\CCCC\C1=C/c1ccc(Cl)c(Cl)c1 (racemic) [Example 34, R,S-2-(E)-(3,4-Dichlorophenyl-methylene)-1-(E)-(3-/bis-n-propyl/-amino-2-hydroxy-propoxyimino)-cyclohexane]",,> 1000,145,> 7,,
"CCCNCC(O)CO/N=C1\CCCC\C1=C/c1c(Cl)cccc1Cl (racemic) [Example 35, R,S-2-(E)-(2,6-Dichlorophenyl-methylene)-1-(E)-(3-propylamino-2-hydroxy-propoxyimino)-cyclohexane]",-100,600,11.5,52,1.84,

Structure (SMILES),change in vivo at 4 mg/kg [1] [%],LD50 at 336 h [2] [mg/kg],ED50 (hexobarbital narcosis) [mg/kg],TI (therapeutic index) (hexobarbital narcosis),ED50 [1] [mg/kg],change in vivo at 100 mg/kg [1] [%]
"COc1ccccc1/C=C1\CCCC\C1=N/OCC(O)CN1CCOCC1 (racemic) [Example 37, R,S-2-(E)-(2-Methoxyphenyl-methylene)-1-(E)-(3-morpholinyl-2-hydroxy-propoxyimino)-cyclohexane]",,> 1000,50,> 20,,
"COc1cccc(/C=C2\CCCC\C2=N/OCC(O)CN2CCN(Cc3ccccc3)CC2)c1 (racemic) [Example 39, R,S-2-(E)-(3-Methoxyphenyl-methylene)-1-(E)-{3-[(4-phenylmethyl)-1-piperazinyl]-2-hydroxy-propoxyimino}-cyclohexane]",,> 1000,,,,
"COc1ccc(/C=C2\CCCCC\C2=N/OCC(O)CNC2CC2)cc1 (racemic) [Example 42, R,S-2-(E)-(4-Methoxyphenyl-methylene)-1-(E)-(3-cyclopropylamino-2-hydroxy-propoxyimino)-cycloheptane]",,> 1000,14.5,> 69,,
"CCCCNCC(O)CO/N=C1\CCCCCC\C1=C/c1ccccc1 (racemic) [Example 49, R,S-2-(E)-Phenylmethylene-1-(E)-(3-butylamino-2-hydroxypropoxyimino)-cyclooctane]",,> 1000,,,,
"COc1ccc(/C=C2\CCCCC\C2=N/OCC(O)CNC(C)C)cc1 (racemic) [Example 50, R,S-2-(E)-(4-Methoxyphenyl-methylene)-1-(E)-/3-(1-methylethylamino)-2-hydroxy-propoxyimino/-cycloheptane]",,1000,,,,
"OC(CO/N=C1\CCCC\C1=C/c1ccccc1)CN1CCN(c2cccc(Cl)c2)CC1 (racemic) [Example 52, R,S-2-(E)-Phenylmethylene-1-(E)-{3-[4-(3-chlorophenyl)-1-piperazinyl]-2-hydroxy-propoxyimino}-cyclohexane]",,> 1000,,,,
"OC(CO/N=C1\CCCC\C1=C/c1ccccc1)CN1CCN(c2cccc(C(F)(F)F)c2)CC1 (racemic) [Example 53, R,S-2-(E)-Phenylmethylene-1-(E)-3-[4-(3-trifluoromethyl)-phenyl-1-piperazinyl]-2-hydroxy-propoxyimino-cyclohexane]",,> 1000,,,,
OC(CO/N=C1\CCCC\C1=C/c1ccccc1)CN1CCC(Cc2ccccc2)CC1 (racemic) [Example 54],-56,600,,,3.47,
"O=C(OC(CO/N=C1\CCCCCC\C1=C/c1ccccc1)CN1CCOCC1)c1ccccc1 (racemic) [Example 69, R,S-2-(E)-Phenylmethylene-1-(E)-[3'-(4-morpholinyl)-2'-benzoyloxy-propoxyimino]-cyclooctane]",,> 1000,,,,
"CNC1=Nc2ccc(Cl)cc2C(c2ccccc2)=[N+]([O-])C1 [Chlordiazepoxide, reference compound]",,,10,62,,
"COc1ccc([C@@H]2Sc3ccccc3N(CCN(C)C)C(=O)[C@@H]2OC(C)=O)cc1 [Dilthiazem, reference compound]",-27,,,,,
"CCCC(C)(COC(N)=O)COC(N)=O [Meprobamate, reference compound]",,,260,4.2,,
"Cc1cccc(C)c1OCC(C)N (centres unmarked) [Mexiletine, reference compound]",-21,,,,,
"CC(C)NCC(O)COc1cccc2[nH]ccc12 (centres unmarked) [Pindolol, reference compound]",,,,,,-52
"CC(C)NCC(O)COc1cccc2ccccc12 (centres unmarked) [Propranolol, reference compound]",-7,,,,5.81,-50

# Reference: US5234934A, “Aminopropanol derivatives, process for their preparation and pharmaceutical compositions comprising the same” (priority 1989, dated 1993)
